Assay [1] deals with T1, wildtype Kras / hSOS1 (Homo sapiens, UniProt P01116).
T1 construct: made in house; host or cells: E. coli BL21 (DE3)
The experiment in a line: HTRF assay, wildtype Kras / SOS1 interaction. Format: binding. As to conditions: read-out: IC50 against wildtype Kras. In a few lines: (§1)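 Tagged proteins: GST-K-Ras (wt or mutant), His-hSOS1; labels anti-GST-Eu/anti-6His-XL665; HEPES pH 7.4 buffer with DTT, BSA, Igepal. Read ≥10 min post-mix at ex 337 nm; IC50 from ratiometric data, duplicates.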
Background: TR-FRET usually uses a lanthanide donor and a delayed reading to cut background.

In assay [2] the target is GST-tagged K-Ras mutant / His-tagged hSOS1 (Homo sapiens, UniProt P01116). The experiment in a line: HTRF assay, K-Ras mutant / SOS1 interaction. The format is binding. The following applies: read-out: IC50 against mutant Kras. In short, it runs like this:
as §1

Setting [3] is: compound nos. 102-196, general methodology of example 5.
The mark [4] stands for this setting: compound nos. 201-213, general methodology of example 5.

Where two headings read alike, the source gives them in different places.

T1 sequence (P01116 1-188 isoform P01116-2): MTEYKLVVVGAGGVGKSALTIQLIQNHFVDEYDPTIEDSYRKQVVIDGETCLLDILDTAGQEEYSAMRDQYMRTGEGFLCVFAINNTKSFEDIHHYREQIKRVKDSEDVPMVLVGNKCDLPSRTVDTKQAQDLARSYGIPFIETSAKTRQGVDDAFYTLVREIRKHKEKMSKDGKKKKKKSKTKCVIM
Chain of GST-tagged K-Ras mutant / His-tagged hSOS1 (P01116 whole entry G12D, form open): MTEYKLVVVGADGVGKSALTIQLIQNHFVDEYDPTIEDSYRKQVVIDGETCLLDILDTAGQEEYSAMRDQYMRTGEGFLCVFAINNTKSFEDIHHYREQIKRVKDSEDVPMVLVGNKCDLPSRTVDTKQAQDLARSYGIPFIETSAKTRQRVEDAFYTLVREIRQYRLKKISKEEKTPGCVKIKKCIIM

A word on the IC50: it is the concentration needed to halve the response being measured. Consider `OC1Cc2ccccc2N(c2ccc3c(N4CC5CCC(C4)N5)nc(OCC45CCCN4CCC5)nc3c2F)C1` (stereo not drawn) [Compound 538, 1-(4-(3,8-diazabicyclo-[3.2.1]octan-3-yl)-8-fluoro-2-((tetrahydro-1H-pyrrol-izin-7a(5H)-yl)methoxy)-quinazolin-7-yl)-1,2,3,4-tetrahydro-quinolin-3-ol], for which the IC50 in assay [1] (compound nos. 401-703) and in assay [2] (compound nos. 401-703) was more than 500 nM throughout.
For `Nc1nc2c(-c3c(Cl)cc4c(N5CCNCC(F)(F)C5)ncnc4c3F)cccc2s1` [Compound 110, 4-(6-chloro-4-(6,6-difluoro-1,4-diazepan-1-yl)-8-fluoro-quinazolin-7-yl)benzo[d]-thiazol-2-amine], the IC50 in assay [1] (setting [3]) and in assay [2] (setting [3]) was more than 500 nM in each case.
For the compound `Cc1ccc(CN)cc1-c1c(Cl)cc2c(N3CC4CCC(C3)N4)nc(OCC34CCCN3CCC4)nc2c1F` [Compound 469, (3-(4-(3,8-diazabicyclo-[3.2.1]octan-3-yl)-6-chloro-8-fluoro-2-((tetrahydro-1H-pyrrolizin-7a(5H)-yl)meth-oxy)quinazolin-7-yl)-4-methylphenyl)methanamine], the half-maximal inhibitory concentration (IC50) in assay [1] (compound nos. 401-703) was less than 500 nM; in assay [2] (compound nos. 401-703), more than 500 nM.
For `CN1CCC[C@H]1COc1nc(N2CCNCC(F)(F)C2)c2cc(Cl)c(-c3cccc4oc(N)nc34)c(F)c2n1` [Compound 158, 4-(6-chloro-4-(6,6-difluoro-1,4-diazepan-1-yl)-8-fluoro-2-(((S)-1-methylpyrrolidin-2-yl)methoxy)quinazolin-7-yl)benzo[d]oxazol-2-amine], the IC50 in assay [1] (setting [3]) and in assay [2] (setting [3]) was less than 500 nM in each case.
With `Fc1ccc(-c2c(Cl)cc3c(N4CC5CCC(C4)N5)nc(OC[C@@]45CCCN4C[C@H](F)C5)nc3c2F)c2c1CCCC2` [Compound 689, 4-(3,8-diazabicyclo[3.2.1]-octan-3-yl)-6-chloro-8-fluoro-7-(4-fluoro-5,6,7,8-tetrahydronaphthalen-1-yl)-2-(((2R,7aS)-2-fluorotetra-hydro-1H-pyrrolizin-7a(5H)-yl)methoxy)quinazoline], the IC50 in assay [1] (compound nos. 401-703) and in assay [2] (compound nos. 401-703) was more than 500 nM throughout.
As to `N#Cc1c(N)sc2cccc(-c3c(Cl)cc4c(N5CC6CCC(C5)N6)nc(OC[C@@]56CCCN5C[C@H](F)C6)nc4c3F)c12` [Compound 552, 4-(4-(3,8-diazabicyclo-[3.2.1]octan-3-yl)-6-chloro-8-fluoro-2-(((2R,7aS)-2-fluorotetrahydro-1H-pyrrol-izin-7a(5H)-yl)methoxy)-quinazolin-7-yl)-2-amino-benzo[b]thiophene-3-carbonitrile], the IC50 is more than 500 nM in assay [1] (compound nos. 401-703) and less than 500 nM in assay [2] (compound nos. 401-703).
In the case of `Nc1c(-c2c(Cl)cc3c(N4CC5CCC(C4)N5)nc(OCC45CCCN4CCC5)nc3c2F)cccc1C1CC1` [Compound 695, 2-(4-(3,8-diazabicyclo-[3.2.1]octan-3-yl)-6-chloro-8-fluoro-2-((tetrahydro-1H-pyrrolizin-7a(5H)-yl)meth-oxy)quinazolin-7-yl)-6-cyclopropylaniline], the IC50 in assay [1] (compound nos. 401-703) and in assay [2] (compound nos. 401-703) was more than 500 nM each time.
Turning to `Nc1nc2c(-c3ccc4c(N5CC6CCC(C5)N6)nc(OC[C@@]56CCCN5C[C@H](F)C6)nc4c3F)cccc2o1` [Compound 634, 4-(4-(3,8-diazabicyclo-[3.2.1]octan-3-yl)-8-fluoro-2-(((2R,7aS)-2-fluorotetra-hydro-1H-pyrrolizin-7a(5H)-yl)methoxy)quinazolin-7-yl)benzo[d]oxazol-2-amine], the IC50 in assay [1] (compound nos. 401-703) and in assay [2] (compound nos. 401-703) was more than 500 nM each time.
As for `Nc1c(-c2c(Cl)cc3c(N4CC5CCC(C4)N5)nc(OCC45CCCN4CCC5)nc3c2F)cccc1C(F)(F)F` [Compound 527, 2-(4-(3,8-diazabicyclo-[3.2.1]octan-3-yl)-6-chloro-8-fluoro-2-((tetrahydro-1H-pyrrolizin-7a(5H)-yl)meth-oxy)quinazolin-7-yl)-6-(trifluoromethyl)aniline], the IC50 in assay [1] (compound nos. 401-703) and in assay [2] (compound nos. 401-703) was more than 500 nM in each case.
For the compound `CN1CCC[C@H]1COc1nc(N2CCNCC(F)(F)C2)c2cc(Cl)c(-c3cccc4sc(N)nc34)c(F)c2n1` [Compound 102, 4-(6-chloro-4-(6,6-difluoro-1,4-diazepan-1-yl)-8-fluoro-2-(((S)-1-methylpyrrolidin-2-yl)methoxy)quinazolin-7-yl)benzo[d]thiazol-2-amine], the IC50 in assay [1] (setting [3]) and in assay [2] (setting [3]) was less than 500 nM each time.
`Oc1cc(-c2cnc3c(N4CC5CCC(C4)N5)nc(OC[C@@]45CCCN4C[C@H](F)C5)nc3c2)c2ccccc2c1` (single isomer, unassigned) [Compound 429]: the half-maximal inhibitory concentration (IC50) in assay [1] (compound nos. 401-703) was less than 500 nM; in assay [2] (compound nos. 401-703), more than 500 nM.
For `CN1CCC[C@H]1COc1nc(N2CCNCC(F)(F)C2)c2cc(Cl)c(-c3cccc4[nH]c(N)nc34)c(F)c2n1` [Compound 178, 4-(6-chloro-4-(6,6-difluoro-1,4-diazepan-1-yl)-8-fluoro-2-(((S)-1-methylpyrrolidin-2-yl)methoxy)quinazolin-7-yl)-1H-benzo[d]imidazol-2-amine], the IC50 in assay [1] (setting [3]) and in assay [2] (setting [3]) was more than 500 nM throughout.
Regarding `N#CCCc1cc2c(N3CC4CCC(C3)N4)nc(OC[C@@]34CCCN3C[C@H](F)C4)nc2c(F)c1-c1cc(O)cc2ccccc12` [Compound 595, 3-(4-(3,8-diazabicyclo-[3.2.1]octan-3-yl)-8-fluoro-2-(((2R,7aS)-2-fluorotetra-hydro-1H-pyrrolizin-7a(5H)-yl)methoxy)-7-(3-hydroxynaphthalen-1-yl)-quinazolin-6-yl)propane-nitrile], the figures for the IC50 in assay [1] (compound nos. 401-703) and in assay [2] (compound nos. 401-703) were more than 500 nM and less than 500 nM, respectively.
`Nc1nc2c(-c3c(Cl)cc4c(N5CC6CCCC5CN6)nc(OC[C@@]56CCCN5C[C@H](F)C6)nc4c3F)ccc(F)c2s1` (stereo partly drawn) [Compound 685, 4-(4-(6,8-diazabicyclo-[3.2.2]nonan-6-yl)-6-chloro-8-fluoro-2-(((2R,7aS)-2-fluorotetrahydro-1H-pyrrol-izin-7a(5H)-yl)methoxy)-quinazolin-7-yl)-7-fluoro-benzo[d]thiazol-2-amine]: the IC50 in assay [1] (compound nos. 401-703) is more than 500 nM; in assay [2] (compound nos. 401-703), less than 500 nM.
With `N#Cc1c(N)sc2c(F)ccc(-c3c(Cl)cc4c(N5CCCS(=O)(=O)CC5)nc(OC[C@@]56CCCN5C[C@H](F)C6)nc4c3F)c12` [Compound 574, 2-amino-4-(6-chloro-4-(1,1-dioxido-1,4-thiazepan-4-yl)-8-fluoro-2-(((2R,7aS)-2-fluorotetrahydro-1H-pyrrol-izin-7a(5H)-yl)methoxy)-quinazolin-7-yl)-7-fluoro-benzo[b]thiophene-3-carbonitrile], the IC50 in assay [1] (compound nos. 401-703) is more than 500 nM; in assay [2] (compound nos. 401-703), less than 500 nM.
In the case of `CN1[C@@H]2CC[C@H]1CN(c1nc(OC[C@@]34CCCN3C[C@H](F)C4)nc3c(F)c(-c4ccc(F)c5sc(N)nc45)c(Cl)cc13)C2` [Compound 205, 4-(6-chloro-8-fluoro-2-(((2R,7aS)-2-fluorotetra-hydro-1H-pyrrolizin-7a(5H)-yl)methoxy)-4-((1R,5S)-8-methyl-3,8-diazabicyclo[3.2.1]octan-3-yl)quinazolin-7-yl)-7-fluorobenzo[d]thiazol-2-amine], the 50% inhibitory concentration (IC50) in assay [1] (setting [4]) and in assay [2] (setting [4]) was less than 1500 nM in each case.
`Nc1nc2c(-c3c(Cl)cc4c(N5CC6CCCC(C5)NC6)nc(OC[C@@]56CCCN5C[C@H](F)C6)nc4c3F)ccc(F)c2s1` (stereo partly drawn) [Compound 512, 4-(4-(3,9-diazabicyclo-[3.3.2]decan-3-yl)-6-chloro-8-fluoro-2-(((2R,7aS)-2-fluorotetrahydro-1H-pyrrol-izin-7a(5H)-yl)methoxy)-quinazolin-7-yl)-7-fluoro-benzo[d]thiazol-2-amine]: the half-inhibitory concentration (IC50) in assay [1] (compound nos. 401-703) is more than 500 nM; in assay [2] (compound nos. 401-703), less than 500 nM.
As to `Nc1nc2c(-c3ccc4c(N5CC6CCC(C5)N6)nc(OC[C@@]56CCCN5C[C@H](F)C6)nc4c3F)ccc(F)c2s1` [Compound 612, 4-(4-(3,8-diazabicyclo-[3.2.1]octan-3-yl)-8-fluoro-2-(((2R,7aS)-2-fluorotetra-hydro-1H-pyrrolizin-7a(5H)-yl)methoxy)quinazolin-7-yl)-7-fluorobenzo[d]thiazol-2-amine], the 50% inhibitory concentration (IC50) in assay [1] (compound nos. 401-703) and in assay [2] (compound nos. 401-703) was more than 500 nM throughout.
As for `Cc1ccc2cnn(C)c2c1-c1ccc2c(N3CC4CCC(C3)N4)nc(OC[C@@]34CCCN3C[C@H](F)C4)nc2c1F` [Compound 478, 4-(3,8-diazabicyclo-[3.2.1]octan-3-yl)-7-(1,6-dimethyl-1H-indazol-7-yl)-8-fluoro-2-(((2R,7aS)-2-fluorotetrahydro-1H-pyrrolizin-7a(5H)-yl)meth-oxy)quinazoline], the IC50 in assay [1] (compound nos. 401-703) was less than 500 nM; in assay [2] (compound nos. 401-703), more than 500 nM.
As to `CN1CCC[C@H]1COc1nc(N2CCNCC(F)(F)C2)c2cc(Cl)c(-c3cccc4scnc34)c(F)c2n1` [Compound 122, 4-(6-chloro-4-(6,6-difluoro-1,4-diazepan-1-yl)-8-fluoro-2-(((S)-1-methylpyrrolidin-2-yl)methoxy)quinazolin-7-yl)benzo[d]thiazole], the concentration for half-maximal inhibition (IC50) in assay [1] (setting [3]) and in assay [2] (setting [3]) was more than 500 nM throughout.
In the case of `CN(C)C1CN(c2nc(N3CC4CCC(C3)N4)c3cc(CCC#N)c(-c4ccc(F)c5sc(N)nc45)c(F)c3n2)C1` [Compound 516, 3-(7-(2-amino-7-fluoroben-zo[d]thiazol-4-yl)-4-(3,8-diazabicyclo[3.2.1]octan-3-yl)-2-(3-(dimethylamino)-azetidin-1-yl)-8-fluoroquin-azolin-6-yl)propanenitrile], the IC50 in assay [1] (compound nos. 401-703) and in assay [2] (compound nos. 401-703) was more than 500 nM throughout.

The values are drawn from patent US20240254129A1, “HETEROCYCLIC COMPOUNDS AND USES THEREOF” (Kumquat Biosciences Inc., priority 2021, published 2024).
